In patent EP4710919A1, “INJECTION PREPARATION AND PREPARATION METHOD THEREFOR, AND COMPATIBLE MEDICINAL LIQUID AND PREPARATION METHOD THEREFOR” (Ascentawits Pharmaceuticals, Ltd., priority 2023, dated 2024):

Legend:
Format in all cases: physicochemical
[1] = Chiral stability study of the 1.00 mg/ml compatibility drug solution of Compound A (room temperature, HPLC contents of A-P1 and A-P2); conditions: in the compatibility solution of the injection formulation
Method: (§1) Compound A is a racemic mixture containing one chiral center. Its two isomers, named A-P1 and A-P2, can be obtained by resolving Compound A. During the formulation and compatibility studies, interconversion between the chiral isomers may affect the drug safety. Therefore, it is necessary to study the chiral stability of Compound A in both its injection formulation and the compatibility drug solution of the injection formulation.
(§2) • (a) The concentrated injection formulation of Compound A (2 ml: 20 mg) was prepared according to the aforementioned confirmed Formulation F19 and its preparation method. • (b) The compatibility drug solution with a concentration of 1.00 mg/ml was prepared according to the process for preparing a compatibility solution as described in Section 5.1.
For the 1.00 mg/ml compatibility drug solution (ready-to-use injection), the solution was stored at room temperature (25°C ± 2°C) under indoor ambient lighting. Samples were taken at different time points (0 h, 2 h, 4 h, 8 h and 24 h) and the contents of A-P1 and A-P2 were determined using the aforementioned HPLC method to evaluate chiral stability. Table 27: Chiral stability study of the concentrated Compound A injection

[2] = Stability of Compound A in formulations with different adjuvants at 2-8°C (HPLC content, total impurities, moisture); conditions: stored at 2-8°C for 10 days; all formulation solvent systems
Method: For the aforementioned treated Formulations F1 to F4, their specific formulation information is as follows ("p": the formulation obtained by adding ELP to the formulations in Table 3): • F1p: 300 mg API, 7.5 g ELP, and absolute ethanol added to 30 ml; • F2-1p: 3 g propylene glycol, 300 mg API, 7.5 g ELP, and absolute ethanol added to 30 ml; • F2-2p: 9 g propylene glycol, 300 mg API, 7.5 g ELP, and absolute ethanol added to 30 ml; • F3-1p: 1.5 g glycerin, 300 mg API, 7.5 g ELP, and absolute ethanol added to 30 ml; • F3-2p: 4.5 g glycerin, 300 mg API, 7.5 g ELP, and absolute ethanol added to 30 ml; • F4-1: 3 g DMA, 300 mg API, and absolute ethanol added to 30 ml; • F4-2: 9 g DMA, 300 mg API, and absolute ethanol added to 30 ml; • F4-3: 15 g DMA, 300 mg API, and absolute ethanol added to 30 ml.
The stability of Compound A in the aforementioned formulations was investigated. At the predetermined time points (Day 0, Day 5, Day 10), 1 ml samples were taken for HPLC analysis to detect the content, total impurities, and moisture, respectively. Table 4: Stability of Compound A in formulations with different adjuvants at 2-8°C

[3] = Solubility of Compound A in single solvents (water, acidic and alkaline aqueous solutions, isopropanol, methanol) at 25°C
Method: The solubility of Compound A in single solvents (water, acidic and alkaline aqueous solutions, isopropanol, and methanol) was investigated. Table 1: Solubility investigation of Compound A at 25°C

[4] = Chiral stability study of the concentrated Compound A injection (-20±5°C, HPLC contents of A-P1 and A-P2); conditions: in its injection formulation
Method: as §1, §2
For the injection formulation of Compound A (concentrated injection), the formulation was stored under light-protected, sealed conditions at -20±5°C. Samples were taken at different time points (0 month, 1 month, 3 months), and the contents of A-P1 and A-P2 were determined using the aforementioned HPLC method for stability evaluation.

[5] = Solubility of Compound A in single adjuvant solvents at 25°C (supersaturated solution, sampled every 2 hours); conditions: organic solvent or mixture, thermodynamic from solid; for solubility at 0 h / solubility at 2 h / solubility at 4 h / solubility at 6 h: single solvent
Method: In order to increase the concentration of the active pharmaceutical ingredient in the injection, the solubility of the active pharmaceutical ingredient in single adjuvants was investigated to screen for optimal solvents, hydrotropic agents, or solubilizers. The solubility test of Compound A in single solvents was conducted as follows: Each of the single solvents was taken, a certain amount of API (the compound of formula I) was added at 25°C and stirred, and the dissolution of the API in the solvent system was observed. If the dissolution was complete, additional API was added continuously until a supersaturated solution was obtained. Samples were taken every 2 hours, filtered and assayed for content. Table 2: Solubility data of Compound A in single solvents at 25°C

[6] = Compatibility and stability study of ready-to-use intravenous injections (0.02 and 1.00 mg/ml in pH-adjusted 5% glucose injection); conditions: after filtration, room temperature, indoor ambient lighting
Method: In order to provide compatibility information for the injection of the compound of formula I (Compound A, API) and the compatibility solutions, it is necessary to investigate the short-term stability of the injection in 5% glucose injection, a commonly used intravenous diluent. Considering that the API is instable in acidic environments, the pH of the 5% glucose injection is first adjusted to 7.4 using a sodium bicarbonate solution.
1.0 ml of 5% sodium bicarbonate injection was added to 250 ml of 5% glucose injection to adjust the pH, and mixed homogeneously. At this point, the pH of the mixed solution was approximately 8.0.
The Compound A injection (2 ml: 20 mg) was prepared with the pH-adjusted 5% glucose injection into a compatibility solution with a concentration of 0.02 mg/ml, and a compatibility solution with a concentration of 1.00 mg/ml.
0.501 ml of Compound A injection (2 ml: 20 mg) was added to a mixing bag containing 250 ml of 5% glucose injection (whose pH had been pre-adjusted using 5% sodium bicarbonate injection). The mixing bag was repeatedly inverted to ensure homogeneous mixing of the mixed solution before storage and sampling.
27.8 ml of Compound A injection (2 ml: 20 mg) was added to a mixing bag containing 250 ml of 5% glucose injection (whose pH had been pre-adjusted using 5% sodium bicarbonate injection). […]

[7] = Solubility of Compound A in formulations with different adjuvants, observations before and after treatment
Excerpt: Compound A and Compound AST-3424 are structurally similar (both are nitrobenzyl derivatives and linked to a DNA alkylating agent with an aziridine structure that can effectively kill tumor cells). In addition, by releasing the DNA alkylating agent with an aziridine structure in tumor tissues or cells that overexpress the AKR1C3 enzyme, both compounds enable targeted recognition and treatment of any of the tumor tissues or cells that overexpress […] 1C3 (AKR1C3), and achieve the purpose of killing the tumor tissues or cells. Therefore, based on the same formulation development strategy, the inventors designed and selected an injection formulation similar to that of Compound AST-3424 (the optimal formulation of AST-3424: 10 mg/ml Compound AST-3424 + 75% ethanol + 25% propylene glycol) for use in the formulation study of Compound A.
In addition to the solvents used in the reference formulation of Compound AST-3424, absolute ethanol was employed as a commonly used and relatively safe non-aqueous solvent adjuvant for injection formulations. During the development of the product formulation, it was considered to add N,N-dimethylacetamide (DMA) or polyoxyethylene (35) castor oil (ELP) to improve solubility and facilitate the manufacturing convenience. […]

[8] = Polyethylene glycol 400 (PEG 400)
[9] = Polyoxyethylene (35) castor oil (ELP)

In the case of `O=[N+]([O-])c1ccc(C(OP(=O)(N2CC2)N2CC2)C(F)(F)F)cc1Oc1ccc(-c2ccc(F)cc2)c(F)c1` (racemic) [Compound A], the chiral stability [1] is reported as “chirally stable”, the “stability with respect to content, total impurities, and moisture” value [2] is reported as “remained relatively stable” and the Solubility ([3]; 0.1 mol/L HCl solution, 25°C) is reported as “Practically insoluble”. The Solubility ([3]; 0.1 mol/L NaOH solution, 25°C) was “Practically insoluble”, the Solubility ([3]; Isopropanol, 25°C) was “Practically insoluble” and the Solubility ([3]; Methanol, 25°C) was “Sparingly soluble”. For the same molecule, the Solubility ([3]; Water, 25°C) was “Practically insoluble”, the Solubility ([3]; in water, and acidic and alkaline aqueous solutions) was “extremely low solubility” and the chiral stability [4] was “chirally stable”. For the same molecule, the Solubility ([5]; N,N-dimethylacetamide (single solvent), in N,N-dimethylacetamide) was > 200 mg/mL, the Solubility ([5]; polyoxyethylene (35) castor oil (single solvent), in polyoxyethylene (35) castor oil) was ~20 mg/mL and the solubility at 0 h ([5]; Ethanol) was 8.95 mg/mL. For the same molecule, the solubility at 2 h ([5]; Ethanol) was 9.09 mg/mL, the solubility at 4 h ([5]; Ethanol) was 9.43 mg/mL and the solubility at 6 h ([5]; Ethanol) was 9.28 mg/mL. For the same molecule, the solubility at 0 h ([5]; N,N-Dimethylacetamide (DMA)) was 248 mg/mL, the solubility at 2 h ([5]; N,N-Dimethylacetamide (DMA)) was 251 mg/mL and the solubility at 4 h ([5]; N,N-Dimethylacetamide (DMA)) was 251 mg/mL. For the same molecule, the solubility at 6 h ([5]; N,N-Dimethylacetamide (DMA)) was 251 mg/mL, the solubility at 0 h [5, 8] was 12.2 mg/mL and the solubility at 2 h [5, 8] was 11.2 mg/mL. It also gave a solubility at 4 h [5, 8] of 15.3 mg/mL, a solubility at 6 h [5, 8] of 16 mg/mL and a solubility at 0 h [5, 9] of 18.6 mg/mL. It also gave a solubility at 2 h [5, 9] of 20.7 mg/mL, a solubility at 4 h [5, 9] of 20.7 mg/mL and a solubility at 6 h [5, 9] of 21.3 mg/mL. For the same molecule, the “changes in traits, color and clarity of solution, osmotic pressure, pH value, content of Compound A, and related substances” value ([6]; 0.02 mg/ml compatibility solutions, within 8 hours) was “no significant changes”, the “changes in traits, color and clarity of solution, osmotic pressure, pH value, and content of Compound A” value ([6]; 1.00 mg/ml compatibility solutions, within 6 hours) was “no significant changes” and the “dissolution of Compound A” value ([7]; formulation prepared based on the formulation design of Compound AST-3424 (ethanol:propylene glycol 3:1, 300 mg in 30 ml)) was “cannot be completely dissolved”. For the same molecule, the Solubility ([7]; mixed solvent of ethanol and propylene glycol) was “poorly soluble”.
